Like-named read-outs stand apart in the source and are kept apart here.
Tests used:
[1] = molecular target: T1, RNaseH2 (Homo sapiens, UniProt O75792); assay: Fluorogenic RNaseH2 activity assay (RNA/DNA hybrid substrate); format: biochemical; details: fluorescence assay, four-parameter logistic fit; read-out: RNaseH2 inhibition IC50
T1 construct: made in house; host or cells: E. coli BL21 (DE3) RIPL
T1 sequence (O75792 1-299): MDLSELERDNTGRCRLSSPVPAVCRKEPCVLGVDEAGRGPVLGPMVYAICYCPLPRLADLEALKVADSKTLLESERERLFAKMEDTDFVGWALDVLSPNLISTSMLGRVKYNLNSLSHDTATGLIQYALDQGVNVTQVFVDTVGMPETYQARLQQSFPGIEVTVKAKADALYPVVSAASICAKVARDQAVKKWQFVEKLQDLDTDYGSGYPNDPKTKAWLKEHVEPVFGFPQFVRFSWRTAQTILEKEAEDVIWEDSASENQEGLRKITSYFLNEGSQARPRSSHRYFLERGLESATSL
T1 sequence (Q5TBB1 1-312 partner): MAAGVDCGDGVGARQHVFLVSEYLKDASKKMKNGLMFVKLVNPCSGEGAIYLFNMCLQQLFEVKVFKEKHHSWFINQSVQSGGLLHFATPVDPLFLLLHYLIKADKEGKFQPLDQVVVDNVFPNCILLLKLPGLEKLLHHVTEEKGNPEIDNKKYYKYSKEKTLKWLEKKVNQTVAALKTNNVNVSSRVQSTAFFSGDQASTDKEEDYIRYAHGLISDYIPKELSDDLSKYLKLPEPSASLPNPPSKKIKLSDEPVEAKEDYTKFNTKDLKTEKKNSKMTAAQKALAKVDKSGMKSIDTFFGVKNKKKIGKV
T1 sequence (Q8TDP1 1-164 partner): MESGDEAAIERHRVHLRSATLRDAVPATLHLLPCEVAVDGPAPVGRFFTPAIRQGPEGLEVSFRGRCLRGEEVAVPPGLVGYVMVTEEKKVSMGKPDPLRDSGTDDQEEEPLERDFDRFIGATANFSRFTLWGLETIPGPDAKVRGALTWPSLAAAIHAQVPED
Description: Briefly, a biochemical activity assay was established employing a duplex RNA/DNA oligonucleotide containing an internally quenched fluorophore and a single ribonucleotide positioned so that RNaseH2-mediated incision would lead to dissociation and de-quenching. […] To identify inhibitors, we screened several compound libraries containing a total of 71394 chemical compounds (Fig. 1c).
(a) RNaseH2 activity assay. An 80 nM RNA/DNA hybrid substrate was incubated with the indicated concentrations of RNaseH2, and fluorescence was recorded over 45 minutes. Each data point represents the average of four technical replicates. (b) RNaseH2 inhibition. […] Each data point denotes the average (± SD) of two technical replicates and was fitted to a four-parameter logistic curve. (c) High-throughput screening for RNaseH2 inhibitors. Each symbol represents one technical replicate of 71394 screening compounds, 9495 DMSO solvent controls, and 3552 no-enzyme controls. […] (d) Z’-factor of high-throughput screening assay. […] (e) Hit validation experiments on six candidate RNaseH2 inhibitors. […]
RNaseH2 activity assay was performed at room temperature in 384-well plates (black OptiPlates, PerkinElmer). […] The samples were incubated at room temperature for 20–30 min, and fluorescence was recorded using a Tecan SPARK plate reader at an excitation wavelength of 610[10] nm and emission wavelength of 670[20] nm.

[2] = molecular target: T1, RNaseH2; details: read-out: RNaseH2 inhibition IC50, reported value; cited from earlier work

O=C(CSc1ncnc2sc3c(c12)CCCC3)NCc1ccco1 [RHI002, N-(2-Furanylmethyl)−2-[(5,6,7,8-tetrahydro[1]benzothieno[2,3-d]pyrimidin-4-yl)thio]-acetamide]
IC50 [1]: 5.6 µM | IC50 [2]: 16 µM
